Values joined by “and” are separate entries in the source; they are usually repeats but may differ in a detail not shown here. Identical values can stand only once. Toxic doses and inconclusive results are not listed.
Tested on: P388 leukemia ip, CD2F1 mice, survival T/C
Test: NCI In Vivo Anticancer Drug Screen. Data for tumor model P388 Leukemia (intraperitoneal) in CD2F1 (CDF1) mice
Details: endpoint: median survival time, higher = longer survival
How it was run: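 Mice carrying the transplanted tumor received test compound or vehicle. Survival was recorded in each group, and the value is the treated-group measurement divided by that of the vehicle-treated control group.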

[1] = dose: 50.0 mg/kg/injection, schedule: Q01DX009 (ip), vehicle: saline with Tween-80
[2] = dose: 100.0 mg/kg/injection, schedule: Q01DX009 (ip), vehicle: saline with Tween-80
[3] = dose: 200.0 mg/kg/injection, schedule: Q01DX009 (ip), vehicle: saline with Tween-80
[4] = dose: 60.0 mg/kg/injection, schedule: Q01DX005 (ip), vehicle: saline with Tween-80
[5] = dose: 120.0 mg/kg/injection, schedule: Q01DX005 (ip), vehicle: saline with Tween-80
[6] = dose: 240.0 mg/kg/injection, schedule: Q01DX005 (ip), vehicle: saline with Tween-80
[7] = dose: 15.0 mg/kg/injection, schedule: Q01DX005 (ip), vehicle: saline with Tween-80
[8] = dose: 30.0 mg/kg/injection, schedule: Q01DX005 (ip), vehicle: saline with Tween-80

## CCCCCCCCn1c(Cl)c(C(=O)O)c2ccccc21
dose: 100.0 mg/kg/injection, schedule: Q01DX001 (ip), vehicle: Klucel (hydroxypropylcellulose) (HPC)
  T/C: 95 % of control
dose: 200.0 mg/kg/injection, schedule: Q01DX001 (ip), vehicle: Klucel (hydroxypropylcellulose) (HPC)
  T/C: 86 % of control
dose: 400.0 mg/kg/injection, schedule: Q01DX001 (ip), vehicle: Klucel (hydroxypropylcellulose) (HPC)
  T/C: 86 % of control

## C[Si](C)(C)/C=C1\OC=CC(c2ccccc2)O1 (stereo unspecified)
dose: 100.0 mg/kg/injection, schedule: Q01DX001 (ip), vehicle: saline with Tween-80
  T/C: 99 % of control
dose: 200.0 mg/kg/injection, schedule: Q01DX001 (ip), vehicle: saline with Tween-80
  T/C: 100 % of control
dose: 400.0 mg/kg/injection, schedule: Q01DX001 (ip), vehicle: saline with Tween-80
  T/C: 103 % of control

## COC(=O)C12OCC34C(CC5C(C)=C(O)C(=O)CC5(C)C3C(O)C1O)OC(=O)C(OC(=O)N(C)[Si](C)(C)C(C)(C)C)C24 (stereo unspecified)
dose: 125.0 micrograms/kg/injection, schedule: Q01DX005 (ip), vehicle: Klucel (hydroxypropylcellulose) (HPC)
  T/C: 101 % of control
dose: 250.0 micrograms/kg/injection, schedule: Q01DX005 (ip), vehicle: Klucel (hydroxypropylcellulose) (HPC)
  T/C: 95 % of control
dose: 500.0 micrograms/kg/injection, schedule: Q01DX005 (ip), vehicle: Klucel (hydroxypropylcellulose) (HPC)
  T/C: 96 % of control
dose: 1000.0 micrograms/kg/injection, schedule: Q01DX005 (ip), vehicle: Klucel (hydroxypropylcellulose) (HPC)
  T/C: 95 % of control

## CCOC(=O)C(C#N)(CCC(=NC(C)(C)C)Nc1c(Cl)cccc1Cl)CCC(=NC(C)(C)C)Nc1c(Cl)cccc1Cl (stereo unspecified)
[1]
  T/C: 105 % of control
[2]
  T/C: 101 % of control
[3]
  T/C: 92 % of control

## CC(=O)Nc1ccc(S(=O)(=O)Oc2noc3ccc(S(N)(=O)=O)cc23)cc1
dose: 100.0 mg/kg/injection, schedule: Q04DX002 (ip), vehicle: Klucel (hydroxypropylcellulose) (HPC)
  T/C: 102 % of control
dose: 200.0 mg/kg/injection, schedule: Q04DX002 (ip), vehicle: Klucel (hydroxypropylcellulose) (HPC)
  T/C: 107 % of control
dose: 400.0 mg/kg/injection, schedule: Q04DX002 (ip), vehicle: Klucel (hydroxypropylcellulose) (HPC)
  T/C: 109 % of control

## CC1=C(/C=C/C(C)=N/NC(N)=S)C(C)(C)CCC1
dose: 6.25 mg/kg/injection, schedule: Q01DX009 (ip), vehicle: saline with Tween-80
  T/C: 100 % of control
dose: 12.5 mg/kg/injection, schedule: Q01DX009 (ip), vehicle: saline with Tween-80
  T/C: 115 % of control

## C/C(CCl)=N/NC1=NC(C)(CCC2(C)N=C(N/N=C(/C)CCl)SP2(=O)NC23CC4CC(CC(C4)C2)C3)P(=O)(NC23CC4CC(CC(C4)C2)C3)S1 (stereo unspecified)
[4]
  T/C: 105 % of control
[5]
  T/C: 100 % of control
[6]
  T/C: 91 % of control

## CC(=O)OC(C)(C)/C=C/C(=O)[C@](C)(O)[C@H]1[C@H](O)C[C@@]2(C)[C@@H]3CC=C4[C@@H](CC[C@H](O)C4(C)C)[C@]3(CO)C(=O)C[C@]12C
dose: 0.6 mg/kg/injection, schedule: Q01DX009 (ip), vehicle: saline sonified
  T/C: 100 % of control
dose: 1.2 mg/kg/injection, schedule: Q01DX009 (ip), vehicle: saline sonified
  T/C: 100 % of control
dose: 2.4 mg/kg/injection, schedule: Q01DX009 (ip), vehicle: saline sonified
  T/C: 116 % of control

## S=C(S)n1nc(-c2ccccc2)c(N=Nc2cccc(Cl)c2Cl)c1-c1ccccc1
dose: 100.0 mg/kg/injection, schedule: Q04DX002 (ip), vehicle: saline with Tween-80
  T/C: 93 % of control
dose: 200.0 mg/kg/injection, schedule: Q04DX002 (ip), vehicle: saline with Tween-80
  T/C: 93 % of control
dose: 400.0 mg/kg/injection, schedule: Q04DX002 (ip), vehicle: saline with Tween-80
  T/C: 109 % of control

## CCB1OCC(C2OC(O)C3OB(CC)OC32)O1 (stereo unspecified)
dose: 50.0 mg/kg/injection, schedule: Q01DX005 (ip), vehicle: saline with Tween-80
  T/C: 101 % of control and 96 % of control
dose: 100.0 mg/kg/injection, schedule: Q01DX005 (ip), vehicle: saline with Tween-80
  T/C: 96 % of control
dose: 200.0 mg/kg/injection, schedule: Q01DX005 (ip), vehicle: saline with Tween-80
  T/C: 103 % of control and 92 % of control

## CC(=O)OCC1OC(OC(C)=O)C(NC(=O)CNC(=O)OCc2ccccc2)C(OC(C)=O)C1OC(C)=O (stereo unspecified)
dose: 12.5 mg/kg/injection, schedule: Q01DX009 (ip), vehicle: other
  T/C: 107 % of control
dose: 25.0 mg/kg/injection, schedule: Q01DX009 (ip), vehicle: other
  T/C: 100 % of control
dose: 50.0 mg/kg/injection, schedule: Q01DX009 (ip), vehicle: other
  T/C: 91 % of control
dose: 100.0 mg/kg/injection, schedule: Q01DX009 (ip), vehicle: other
  T/C: 89 % of control
dose: 200.0 mg/kg/injection, schedule: Q01DX009 (ip), vehicle: other
  T/C: 98 % of control

## OC1COC(Sc2ncc[nH]2)C(O)C1O (stereo unspecified)
[4]
  T/C: 97 % of control
dose: 60.0 mg/kg/injection, schedule: Q01DX005 (ip), vehicle: saline
  T/C: 96 % of control
[5]
  T/C: 97 % of control
dose: 120.0 mg/kg/injection, schedule: Q01DX005 (ip), vehicle: saline
  T/C: 97 % of control
[6]
  T/C: 94 % of control
dose: 240.0 mg/kg/injection, schedule: Q01DX005 (ip), vehicle: saline
  T/C: 97 % of control

## CCCCCCNC(=S)Nc1ccc2cc(C)ccc2n1
dose: 50.0 mg/kg/injection, schedule: Q01DX009 (ip), vehicle: Klucel (hydroxypropylcellulose) (HPC)
  T/C: 91 % of control
dose: 100.0 mg/kg/injection, schedule: Q01DX009 (ip), vehicle: Klucel (hydroxypropylcellulose) (HPC)
  T/C: 91 % of control
dose: 200.0 mg/kg/injection, schedule: Q01DX009 (ip), vehicle: Klucel (hydroxypropylcellulose) (HPC)
  T/C: 94 % of control

## CC(C)C(=O)CCC(=O)O
dose: 50.0 mg/kg/injection, schedule: Q01DX005 (ip), vehicle: saline
  T/C: 106 % of control
dose: 100.0 mg/kg/injection, schedule: Q01DX005 (ip), vehicle: saline
  T/C: 97 % of control
dose: 200.0 mg/kg/injection, schedule: Q01DX005 (ip), vehicle: saline
  T/C: 98 % of control

## C[C@@H]1CN(C(=O)CCOS(C)(=O)=O)[C@@H](C)CN1C(=O)CCOS(C)(=O)=O
dose: 3.13 mg/kg/injection, schedule: Q04DX003 (ip), vehicle: saline
  T/C: 113 % of control
dose: 6.25 mg/kg/injection, schedule: Q04DX003 (ip), vehicle: saline
  T/C: 122 % of control
dose: 264.0 mg/kg/injection, schedule: Q04DX003 (ip), vehicle: saline with Tween-80
  T/C: 218 % of control
dose: 400.0 mg/kg/injection, schedule: Q04DX003 (ip), vehicle: saline with Tween-80
  T/C: 118 % of control

## CC1(C)CC2(C)OC2C2(C1)N=NC(=O)O2 (stereo unspecified)
dose: 50.0 mg/kg/injection, schedule: Q01DX009 (ip), vehicle: saline + alcohol
  T/C: 90 % of control
[1]
  T/C: 89 % of control
dose: 100.0 mg/kg/injection, schedule: Q01DX009 (ip), vehicle: saline + alcohol
  T/C: 100 % of control
[2]
  T/C: 87 % of control
dose: 200.0 mg/kg/injection, schedule: Q01DX009 (ip), vehicle: saline + alcohol
  T/C: 93 % of control
dose: 400.0 mg/kg/injection, schedule: Q01DX009 (ip), vehicle: saline + alcohol
  T/C: 108 % of control

## COc1ccc(C2NC(c3ccc(OC)cc3)C3CCCC2C3O)cc1 (stereo unspecified)
dose: 100.0 mg/kg/injection, schedule: Q04DX003 (ip), vehicle: saline
  T/C: 100 % of control
dose: 200.0 mg/kg/injection, schedule: Q04DX003 (ip), vehicle: saline
  T/C: 97 % of control
dose: 400.0 mg/kg/injection, schedule: Q04DX003 (ip), vehicle: saline
  T/C: 94 % of control

## CNc1onc(C)c1C
[1]
  T/C: 103 % of control
[2]
  T/C: 105 % of control
[3]
  T/C: 100 % of control

## CCCCCCCCCCCCCCCC(CCCCCC)CCCCCC
dose: 50.0 mg/kg/injection, schedule: Q01DX001 (ip), vehicle: saline sonified
  T/C: 113 % of control
dose: 100.0 mg/kg/injection, schedule: Q01DX001 (ip), vehicle: saline sonified
  T/C: 100 % of control
dose: 200.0 mg/kg/injection, schedule: Q01DX001 (ip), vehicle: saline sonified
  T/C: 109 % of control

## CC(=O)OCC1=C(c2ccccc2)S(=O)(=O)c2ccccc2C1=O
dose: 12.5 mg/kg/injection, schedule: Q01DX005 (ip), vehicle: saline with Tween-80
  T/C: 108 % of control
dose: 25.0 mg/kg/injection, schedule: Q01DX005 (ip), vehicle: saline with Tween-80
  T/C: 106 % of control

## CC(C)(C)c1ccc(OCCSCCOc2ccc(C(C)(C)C)cc2)cc1
[1]
  T/C: 90 % of control
[2]
  T/C: 90 % of control
[3]
  T/C: 90 % of control

## C#CCSC1=NS(=O)(=O)c2ccccc21
dose: 7.5 mg/kg/injection, schedule: Q01DX005 (ip), vehicle: saline with Tween-80
  T/C: 115 % of control
[7]
  T/C: 115 % of control
[8]
  T/C: 98 % of control and 115 % of control
[4]
  T/C: 106 % of control

## CCOC(=O)/C=C1\NC(=O)N(CCCCCCN2C(=O)N/C(=C\C(=O)OCC)C2=O)C1=O
[1]
  T/C: 101 % of control
[2]
  T/C: 93 % of control
[3]
  T/C: 93 % of control

## S=c1n(-c2ccc(Cl)cc2)c2/c(=N\Nc3cc(Cl)ccc3Cl)c(n1-c1ccccn1)=NCCN=2
[7]
  T/C: 98 % of control
[8]
  T/C: 112 % of control
[4]
  T/C: 99 % of control and 112 % of control
